Test results from US12691095B2, “Modulators of TNF-alpha activity” (Forward Therapeutics, Inc., priority 2024, dated 2026).

Each molecule was assayed against T1, TNF-α (Homo sapiens, UniProt P01375) (assay: TNF-α Induced HEK Blue Cellular Assay). Conditions: HEK Blue TNFα reporter cells stimulated with TNF-α, 24 hrs, secreted alkaline phosphatase (QUANTI-Blue, 620 nm).
T1 construct: purchased R&D 210-TA-020/CF
Assay type: cell-based
Experimental: (§1) Test articles were diluted in DMSO and serially diluted into 384 well assay plate (Corning 3765), at final concentrations ranging from […] to 0.5 nM. HEK Blue™ TNFα reporter cells were added at a final density of 10,000 cell per well in assay media [DMEM (Gibco, cat #21063-029), 10% fetal bovine serum (ExcelBio, cat #FND500), 1% Penicillin-Streptomycin (Solarbio, cat #P1400-100]. TNF-α (R&D 210-TA-020/CF) was then added to the assay plate at a final concentration of […]. This plate was then incubated for 24 hrs at 37° C. and 5% CO2. Secreted alkaline phosphatase expression was then measured using QUANTI- Blue™ (Invivogen), according to manufacturer instructions and read on an Envision microplate reader at 620 nm.
(§2) Inhibition data for test compound over a range of concentration was plotted as percentage inhibition of the test compound (100%=maximum inhibition). IC50 values were determined after correcting for background [(sample read-mean of low control)/(mean of high control-mean of low control)] where by the low control is DMSO without stimulation and high control is DMSO with stimulation. The IC50 is defined as the concentration of test compound which produces 50% inhibition and was quantified using the 4 parameter logistic equation to fit the data.

T1 sequence (P01375 77-233 limits assumed): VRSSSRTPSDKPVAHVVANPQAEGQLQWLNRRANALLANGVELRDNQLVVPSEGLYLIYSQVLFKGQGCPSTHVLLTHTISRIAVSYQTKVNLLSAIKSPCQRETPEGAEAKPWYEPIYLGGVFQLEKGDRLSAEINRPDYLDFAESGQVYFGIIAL

IC50 | SMILES
≤ 100 nM | [2H]C([2H])([2H])N1C(=O)c2cccc(Cl)c2[C@H]2C[C@@H]1c1nc3ccc(-c4ccc(P(C)(C)=O)c(F)c4)cc3n12 [Example 1, (7R,14R)-1-chloro-11-(4-(dimethylphosphoryl)-3-fluorophenyl)-6-(methyl-d3)-6,7-dihydro-7,14-methanobenzo[f]benzo[4,5]imidazo[1,2-a][1,4]diazocin-5(14H)-one]
≤ 100 nM | [2H]C([2H])([2H])N1C(=O)c2cccc(Cl)c2[C@H]2C[C@@H]1c1nc3ccc(-c4ccc(P(C)(C)=O)nc4)cc3n12 [Example 2, (7R,14R)-1-chloro-11-(6-(dimethylphosphoryl)pyridin-3-yl)-6-(methyl-d3)-6,7-dihydro-7,14-methanobenzo[f]benzo[4,5]imidazo[1,2-a][1,4]diazocin-5(14H)-one]
≤ 100 nM | [2H]C([2H])([2H])N1C(=O)c2c(C)ccc(Cl)c2[C@H]2C[C@@H]1c1nc3ccc(-c4ccc(P(C)(C)=O)c(F)c4)cc3n12 [Example 3, (7R,14R)-1-chloro-11-(4-(dimethylphosphoryl)-3-fluorophenyl)-4-methyl-6-(methyl-d3)-6,7-dihydro-7,14-methanobenzo[f]benzo[4,5]imidazo[1,2-a][1,4]diazocin-5(14H)-one]
≤ 100 nM | CP(C)(=O)c1ncc(-c2ccc3nc4n(c3c2)[C@@H]2C[C@H]4NC(=O)c3cccc(Cl)c32)cn1 [Example 4, (7R,14R)-1-chloro-11-(2-(dimethylphosphoryl)pyrimidin-5-yl)-6,7-dihydro-7,14-methanobenzo[f]benzo[4,5]imidazo[1,2-a][1,4]diazocin-5(14H)-one]
≤ 100 nM | CP(C)(=O)c1ccc(-c2ccc3nc4n(c3c2)[C@@H]2C[C@H]4NC(=O)c3cccc(Cl)c32)cn1 [Example 5, (7R,14R)-1-chloro-11-(6-(dimethylphosphoryl)pyridin-3-yl)-6,7-dihydro-7,14-methanobenzo[f]benzo[4,5]imidazo[1,2-a][1,4]diazocin-5(14H)-one]
≤ 100 nM | [2H]C([2H])([2H])N1C(=O)c2c(C)ccc(Cl)c2[C@H]2C[C@@H]1c1nc3ccc(-c4ccc(P(C)(C)=O)nc4)cc3n12 [Example 6, (7R,14R)-1-chloro-11-(6-(dimethylphosphoryl)pyridin-3-yl)-4-methyl-6-(methyl-d3)-6,7-dihydro-7,14-methanobenzo[f]benzo[4,5]imidazo[1,2-a][1,4]diazocin-5(14H)-one]
≤ 100 nM | [2H]C([2H])([2H])N1C(=O)c2cccc(Cl)c2[C@H]2C[C@@H]1c1nc3ccc(-c4ccc(P(C)(C)=O)cc4)cc3n12 [Example 7, (7R,14R)-1-chloro-11-(4-(dimethylphosphoryl)phenyl)-6-(methyl-d3)-6,7-dihydro-7,14-methanobenzo[f]benzo[4,5]imidazo[1,2-a][1,4]diazocin-5(14H)-one]
≤ 100 nM | [2H]C([2H])([2H])N1C(=O)c2cccc(Cl)c2[C@H]2C[C@@H]1c1nc3ccc(-c4ccc(P(C)(C)=O)cc4F)cc3n12 [Example 8, (7R,14R)-1-chloro-11-(4-(dimethylphosphoryl)-2-fluorophenyl)-6-(methyl-d3)-6,7-dihydro-7,14-methanobenzo[f]benzo[4,5]imidazo[1,2-a][1,4]diazocin-5(14H)-one]
≤ 100 nM | [2H]C([2H])([2H])N1C(=O)c2cccc(F)c2[C@H]2C[C@@H]1c1nc3ccc(-c4ccc(P(C)(C)=O)c(F)c4)cc3n12 [Example 9, (7R,14R)-11-(4-(dimethylphosphoryl)-3-fluorophenyl)-1-fluoro-6-(methyl-d3)-6,7-dihydro-7,14-methanobenzo[f]benzo[4,5]imidazo[1,2-a][1,4]diazocin-5(14H)-one]
≤ 100 nM | [2H]C([2H])([2H])C([2H])([2H])N1C(=O)c2cccc(Cl)c2[C@H]2C[C@@H]1c1nc3ccc(-c4ccc(P(C)(C)=O)c(F)c4)cc3n12 [Example 10, (7R,14R)-1-chloro-11-(4-(dimethylphosphoryl)-3-fluorophenyl)-6-(ethyl-d5)-6,7-dihydro-7,14-methanobenzo[f]benzo[4,5]imidazo[1,2-a][1,4]diazocin-5(14H)-one]
≤ 100 nM | CCN1C(=O)c2cccc(Cl)c2[C@H]2C[C@@H]1c1nc3ccc(-c4ccc(P(C)(C)=O)c(F)c4)cc3n12 [Example 11, (7R,14R)-1-chloro-11-(4-(dimethylphosphoryl)-3-fluorophenyl)-6-ethyl-6,7-dihydro-7,14-methanobenzo[f]benzo[4,5]imidazo[1,2-a][1,4]diazocin-5(14H)-one]
≤ 100 nM | [2H]C([2H])([2H])N1C(=O)c2cccc(F)c2[C@H]2C[C@@H]1c1nc3ccc(-c4cc(F)c(P(C)(C)=O)cc4F)cc3n12 [Example 12, (7R,14R)-11-(4-(dimethylphosphoryl)-2,5-difluorophenyl)-1-fluoro-6-(methyl-d3)-6,7-dihydro-7,14-methanobenzo[f]benzo[4,5]imidazo[1,2-a][1,4]diazocin-5(14H)-one]

These molecules were tested against T1, TNF-α (assay: TNF-α Induced THP 1 dual Cellular Assay). Conditions: THP1 dual cell reporter cells stimulated with TNF-α, 24 hrs, secreted alkaline phosphatase (QUANTI-Blue, 620 nm).
Assay type: cell-based
Experimental: as §1, with “THP1 dual cell” for “HEK Blue™ TNFα”, “QUANTI-Blue™” for “QUANTI- Blue™”
as §2, with “whereby” for “where by”, “4-parameter” for “4 parameter”

IC50 | SMILES
≤ 100 nM | [2H]C([2H])([2H])N1C(=O)c2cccc(F)c2[C@H]2C[C@@H]1c1nc3ccc(-c4cc(F)c(P(C)(C)=O)cc4F)cc3n12 [Example 12, (7R,14R)-11-(4-(dimethylphosphoryl)-2,5-difluorophenyl)-1-fluoro-6-(methyl-d3)-6,7-dihydro-7,14-methanobenzo[f]benzo[4,5]imidazo[1,2-a][1,4]diazocin-5(14H)-one]
≤ 100 nM | [2H]C([2H])([2H])N1C(=O)c2cccc(F)c2[C@H]2C[C@]1(C)c1nc3ccc(-c4ccc(P(C)(C)=O)c(F)c4)cc3n12 [Example 22, (7R,14R)-11-(4-(dimethylphosphoryl)-3-fluorophenyl)-1-fluoro-7-methyl-6-(methyl-d3)-6,7-dihydro-7,14-methanobenzo[f]benzo[4,5]imidazo[1,2-a][1,4]diazocin-5(14H)-one]
≤ 100 nM | [2H]C([2H])([2H])N1C(=O)c2cccc(F)c2[C@H]2C[C@@H]1c1nc3cc(F)c(-c4ccc(P(C)(C)=O)c(F)c4)cc3n12 [Example 23, (7R,14R)-11-(4-(dimethylphosphoryl)-3-fluorophenyl)-1,10-difluoro-6-(methyl-d3)-6,7-dihydro-7,14-methanobenzo[f]benzo[4,5]imidazo[1,2-a][1,4]diazocin-5(14H)-one]
≤ 100 nM | [2H]C([2H])([2H])N1C(=O)c2cccc(F)c2[C@H]2C[C@@H]1c1nc3ccc(-c4ccc(P(C)(C)=O)c(N)c4)cc3n12 [Example 24, (7R,14R)-11-(3-amino-4-(dimethylphosphoryl)phenyl)-1-fluoro-6-(methyl-d3)-6,7-dihydro-7,14-methanobenzo[f]benzo[4,5]imidazo[1,2-a][1,4]diazocin-5(14H)-one]
≤ 100 nM | [2H]C([2H])([2H])N1C(=O)c2cccc(F)c2[C@H]2C[C@@H]1c1nc3ccc(-c4ccc(P(C)(C)=O)c(NC)c4)cc3n12 [Example 25, (7R,14R)-11-(4-(dimethylphosphoryl)-3-(methylamino)phenyl)-1-fluoro-6-(methyl-d3)-6,7-dihydro-7,14-methanobenzo[f]benzo[4,5]imidazo[1,2-a][1,4]diazocin-5(14H)-one]
